# Laboratory results taken from US20250295653A1, “Use Of Glycine Transporter- 1 Antagonists As Vascular Dementia And/Or Stroke Prophylactic/Treatment Agents” (Recherches Neuro-Hippocampe Inc., priority 2022, published 2025).
# Entries after “also recorded” stand apart in the source; their conditions may differ.
# Tests used:
# NMDAR [1] = molecular target: T1, NMDAR (Mus musculus, UniProt P35438); experiment: Whole-cell voltage-clamp recordings of evoked NMDAR-EPSCs in CA1 pyramidal cells of acute hippocampal slices; format: cell-based; settings: for effect of a low dose after priming of NMDARs with high doses of glycine or D-serine: subsequent application of a low dose
# [2] = 175 mg, clinical trials; cited from earlier work
# NMDAR [3] = experiment: Whole-cell voltage-clamp recordings of evoked NMDAR-EPSCs in CA1 pyramidal cells of acute hippocampal slices; format: cell-based, mouse; settings: 1 mM glycine, acute slices, cells infected with AAV-GluN1-A714L
# [4] = system: NMDAR (GluN1-WT or GluN1-A714L with GluN2A) in HEK293 cells; settings: 1 mM glycine
# NMDAR [5] = molecular target: T1, NMDAR; experiment: NMDAR-EPSC trains in acute slices during the oxygen-glucose deprivation (OGD) paradigm; format: cell-based; settings: NMDAR-EPSC trains (20 Hz) recorded with GO
# Text: Whole-cell electrophysiology on hippocampal slices and HEK293 cells. Whole-cell voltage-clamp recordings were obtained from visually identified CA1 pyramidal cells from acute hippocampal brain slices (300 μm thick) in oxygenated artificial cerebrospinal fluid (ACSF) as previously described (Martina et al., 2004, 2005). The cells were voltage-clamped at −65 mV using cesium methane sulfonate based internal solution and postsynaptic currents were evoked by electrical stimulation of the Schaffer collaterals with a bipolar stimulating electrode positioned in the Stratum radiatum. The intensity of the stimulation was adjusted to obtain evoked excitatory postsynaptic currents (EPSCs). […] To isolate the NMDAR-EPSC, a low concentration of MgCl2 (0.13 mM) ACSF was used wherein the CaCl2 concentration was increased to 3.5 mM to maintain cation balance.
# Oxygen-glucose deprivation paradigm. To mimic ischemia, the acute slices were challenged by an oxygen-glucose deprivation paradigm (OGD) modified from Rossi et al. (Rossi et al., 2000). In this paradigm, external glucose was replaced with 7 mM sucrose, and the external solution was saturated with 95% N2/5% CO2 instead of 95% O2/5% CO2. Iodoacetate and cyanide were also added to the OGD external solution to block glycolysis and oxidative phosphorylation.
# Purification of glycine oxidase. […]
molecule,measurement,setting,value
O=C(O)CN(CC(=O)O)c1ccccc1OCCOc1ccccc1N(CC(=O)O)CC(=O)O [BAPTA],effect on the decrease in NMDAR-EPSC amplitude induced by 1 mM exogenous glycine,NMDAR [1]; BAPTA 10 mM in the recording electrode,significant attenuation
C[C@H](Oc1ccc(S(C)(=O)=O)cc1C(=O)N1CCN(c2ncc(C(F)(F)F)cc2F)CC1)C(F)(F)F [Bitopertin],tolerability at high dose,[2],relatively well tolerated
N[C@H](CO)C(=O)O [D-serine],effect on evoked NMDAR-EPSC amplitude,"NMDAR [1]; 10 μM D-serine, WT and SR−/− mice",potentiated
same,effects of increasing concentrations on NMDAR-EPSC amplitudes,"NMDAR [1]; D-serine, WT mice",dose-dependent
same,dose required to induce a decrease in NMDAR-EPSC amplitude,NMDAR [1]; SR−/− mice,2 mM
same,dose required to induce a decrease in NMDAR-EPSC amplitude,NMDAR [1]; WT mice,1 mM
same,dose-response curve of NMDAR-EPSC amplitudes relative to that of glycine,NMDAR [1]; WT mice,left-shifted
same,effect of a low dose after priming of NMDARs with high doses of glycine or D-serine,NMDAR [1],induced GINI
O=C(N/N=C/c1ccc(O)c(O)c1)c1cc2ccccc2cc1O [dynasore],effect on the decrease in NMDAR-EPSC amplitude by 1 mM glycine,NMDAR [1]; 100 μM dynasore,abolished
same,effect on the decrease in NMDAR-EPSC amplitude evoked by 1 mM D-serine,NMDAR [1]; dynasore,abolished
same,effect on the decrease of NMDAR-EPSC amplitude induced by 250 μM glycine,"NMDAR [1]; dynasore, GlyT1+/− mice",abolished
NCC(=O)O [glycine],effect on NMDAR-EPSC amplitude,"NMDAR [1]; 250 μM glycine, GlyT1+/− mice",significantly inhibited
same,effect on NMDAR-EPSC amplitude,"NMDAR [1]; 250 μM glycine, WT mice",potentiated
same,effect on NMDAR-EPSC amplitude,NMDAR [1]; 1 mM glycine with low Ca2+ (1 mM),increase in NMDAR-EPSC amplitude
same,difference in NMDAR-EPSC amplitude between WT and GlyT1+/− mice,NMDAR [1]; bath application of 10 μM or 1 mM glycine,no significant effect
same,effect on NMDAR-EPSC amplitude,"NMDAR [1]; bath application of low glycine concentrations (below / ≤250 μM), WT slices",increased; also recorded: potentiated in a dose-dependent fashion
same,effect on NMDAR-EPSC amplitude,"NMDAR [1]; high glycine concentration (1 mM), normal Ca2+ (3.5 mM), WT slices",significantly reduced; also recorded: significant decrease
same,effect of a low dose after priming of NMDARs with high doses of glycine or D-serine,NMDAR [1],induced GINI
same,effect on NMDAR-EPSC amplitudes,NMDAR [3],did not decrease
same,effect on NMDAR amplitude,[4]; cells expressing GluN1-A714L,significantly increased
same,effect on amplitude of the NMDAR-EPSC,[4]; cells expressing GluN1-WT,significant decrease
"GO: an enzyme that catalyzes the breakdown of glycine; His-tagged, from Bacillus subtilis, expressed in E. coli (protein, UniProt O31616 1-369, looked up, His tag, an enzyme that catalyzes the breakdown of glycine; His-tagged, from Bacillus subtilis, expressed in E. coli) Glycine oxidase: MKRHYEAVVIGGGIIGSAIAYYLAKENKNTALFESGTMGGRTTSAAAGMLGAHAECEERDAFFDFAMHSQRLYKGLGEELYALSGVDIRQHNGGMFKLAFSEEDVLQLRQMDDLDSVSWYSKEEVLEKEPYASGDIFGASFIQDDVHVEPYFVCKAYVKAAKMLGAEIFEHTPVLHVERDGEALFIKTPSGDVWANHVVVASGVWSGMFFKQLGLNNAFLPVKGECLSVWNDDIPLTKTLYHDHCYIVPRKSGRLVVGATMKPGDWSETPDLGGLESVMKKAKTMLPAIQNMKVDRFWAGLRPGTKDGKPYIGRHPEDSRILFAAGHFRNGILLAPATGALISDLIMNKEVNQDWLHAFRIDRKEAVQI",effect on the decrease of the NMDAR-EPSC amplitude following OGD,NMDAR [5],abolished
